Measured values published in ChEMBL document CHEMBL6114968, “Discovery of BW710 as a potent, selective and orally bioavailable fibroblast growth factor receptor 2 (FGFR2) inhibitor” (Eur J Med Chem, 2025).

Columns and labels:
BaF3 [1] = assay: Antiproliferative activity against mouse BaF3 cells expressing FGFR2 incubated for 72 hrs by CCK-8 assay; assay type: functional, cell-based; conditions: BaF3, 72 h
BaF3 [2] = assay: Antiproliferative activity against mouse BaF3 cells expressing FGFR1 incubated for 72 hrs by CCK-8 assay; assay type: functional, cell-based; conditions: BaF3, 72 h
BaF3 [3] = assay: Antiproliferative activity against mouse BaF3 cells incubated for 72 hrs by CCK-8 assay; conditions: BaF3, 72 h
[4] = Antiproliferative activity against FGFR2 amplified human SNU-16 cells measured after 72 hrs by CCK-8 assay; assay type: functional, cell-based; conditions: SNU-16, 72 h
[5] = Antiproliferative activity against FGFR2 amplified human KATO III stomach cancer cell line measured after 72 hrs by CCK-8 assay; assay type: functional, cell-based
A204 = assay: Antiproliferative activity against FGFR1 amplified human A204 cells measured after 72 hrs by CCK-8 assay; assay type: functional, cell-based; conditions: A204, 72 h
[6] = Antiproliferative activity against human RT-112 cells harboring FGFR3-TACC3 measured after 72 hrs by CCK-8 assay; assay type: functional, cell-based; conditions: RT-112, 72 h
MDA-MB-453 = assay: Antiproliferative activity against human MDA-MB-453 cells harboring FGFR4-Y367C measured after 72 hrs by CCK-8 assay; assay type: functional, cell-based; conditions: MDA-MB-453, 72 h

SMILES: C=CC(=O)Nc1ccc(-c2c(-c3ccc(S(=N)(=O)C4CCCCCC4)cc3)c3c(N)ncnc3n2C)cc1 (stereo not given)
- IC50 (BaF3 [1]): 3.7 nM
- IC50 (BaF3 [2]): 336 nM
- IC50 (BaF3 [3]): > 1000 nM

SMILES: C=C(C)C(=O)Nc1ccc(-c2c(-c3ccc(S4(=O)=NCCCCC4)cc3)c3c(N)ncnc3n2C)cc1F (stereo not given)
- IC50 (BaF3 [1]): 106 nM
- IC50 (BaF3 [2]): > 1000 nM
- IC50 (BaF3 [3]): > 1000 nM

SMILES: C=CC(=O)Nc1ccc(-c2c(-c3ccc(S(=N)(=O)CC(C)(C)C)cc3)c3c(N)ncnc3n2C)cc1 (stereo not given)
- IC50 (BaF3 [1]): 2.9 nM
- IC50 (BaF3 [2]): 684 nM
- IC50 (BaF3 [3]): > 1000 nM

SMILES: C=C(C)C(=O)Nc1ccc(-c2c(-c3ccc(S4(=O)=NCCCCC4)cc3)c3c(N)ncnc3n2C)cc1 (stereo not given)
- IC50 (BaF3 [1]): 14.6 nM
- IC50 (BaF3 [2]): > 1000 nM
- IC50 (BaF3 [3]): > 1000 nM

SMILES: C=CC(=O)Nc1ccc(-c2c(-c3ccc(S(=O)(CC)=NC)cc3)c3c(N)ncnc3n2C)cc1 (stereo not given)
- IC50 (BaF3 [1]): 101 nM
- IC50 (BaF3 [2]): > 1000 nM
- IC50 (BaF3 [3]): > 1000 nM

SMILES: CCC(=O)Nc1ccc(-c2c(-c3ccc(S4(=O)=NCCCCC4)cc3)c3c(N)ncnc3n2C)c(F)c1 (stereo not given)
- IC50 (BaF3 [1]): > 1000 nM
- IC50 (BaF3 [2]): > 1000 nM
- IC50 (BaF3 [3]): > 1000 nM
- IC50 [4]: 1280 nM
- IC50 [5]: 2210 nM
- IC50 (A204): > 10000 nM
- IC50 [6]: > 10000 nM
- IC50 (MDA-MB-453): 4180 nM

SMILES: C=CC(=O)Nc1ccc(-c2c(-c3ccc(S(=N)(=O)CCC)cc3)c3c(N)ncnc3n2C)cc1 (stereo not given)
- IC50 (BaF3 [1]): 70.1 nM
- IC50 (BaF3 [2]): > 1000 nM
- IC50 (BaF3 [3]): > 1000 nM

SMILES: C=CC(=O)Nc1ccc(-c2c(-c3ccc(S4(=O)=NCCCCC45CCC5)cc3)c3c(N)ncnc3n2C)cc1 (stereo not given)
- IC50 (BaF3 [1]): 1.5 nM
- IC50 (BaF3 [2]): 176 nM
- IC50 (BaF3 [3]): > 1000 nM

SMILES: C=CC(=O)Nc1ccc(-c2c(-c3ccc(S(C)(=O)=NC)cc3)c3c(N)ncnc3n2C)cc1 (stereo not given)
- IC50 (BaF3 [1]): 335 nM
- IC50 (BaF3 [2]): > 1000 nM
- IC50 (BaF3 [3]): > 1000 nM

SMILES: CCN1C(=O)N(c2c(F)c(OC)cc(OC)c2F)Cc2cnc3[nH]c(CN4CCOCC4)cc3c21 [PEMIGATINIB]
- IC50 (BaF3 [1]): 2 nM
- IC50 (BaF3 [2]): 19.8 nM
- IC50 (BaF3 [3]): > 1000 nM
- IC50 [4]: 1.1 nM
- IC50 [5]: 1.8 nM
- IC50 (A204): 29.2 nM
- IC50 [6]: 10.9 nM
- IC50 (MDA-MB-453): 150 nM

SMILES: C=CC(=O)Nc1ccc(-c2c(-c3ccc(S4(=O)=NCCOCC4)cc3)c3c(N)ncnc3n2C)cc1 (stereo not given)
- IC50 (BaF3 [1]): 310 nM
- IC50 (BaF3 [2]): > 1000 nM
- IC50 (BaF3 [3]): > 1000 nM

SMILES: C=CC(=O)Nc1ccc(-c2c(-c3ccc(S(=N)(=O)c4ccccc4)cc3)c3c(N)ncnc3n2C)cc1 (stereo not given)
- IC50 (BaF3 [1]): 8.7 nM
- IC50 (BaF3 [2]): 441 nM
- IC50 (BaF3 [3]): > 1000 nM

SMILES: C=CC(=O)Nc1ccc(-c2c(-c3ccc(S(=N)(=O)CC)cc3)c3c(N)ncnc3n2C)cc1 (stereo not given)
- IC50 (BaF3 [1]): 320 nM
- IC50 (BaF3 [2]): > 1000 nM
- IC50 (BaF3 [3]): > 1000 nM

SMILES: C=CC(=O)Nc1ccc(-c2c(-c3ccc(S(=O)(CCC)=NC)cc3)c3c(N)ncnc3n2C)cc1 (stereo not given)
- IC50 (BaF3 [1]): 35.5 nM
- IC50 (BaF3 [2]): > 1000 nM
- IC50 (BaF3 [3]): > 1000 nM

SMILES: C=CC(=O)Nc1ccc(-c2c(-c3ccc(S(=N)(=O)C4CCC4)cc3)c3c(N)ncnc3n2C)cc1 (stereo not given)
- IC50 (BaF3 [1]): 45.8 nM
- IC50 (BaF3 [2]): > 1000 nM
- IC50 (BaF3 [3]): > 1000 nM
